Measurements taken from patent US20180119156A1, “[…] GENE EXPRESSION” (priority 2015, published 2018).

How the values were obtained:
[1] = system: E. coli DH10B-T7His-Theo4; assay type: cell-based, Escherichia coli
Protocol: The performance of the cascade was measured using GFPuv expression (FIG. 12). Specifically, the theophylline dependency of the cascade at 0.8 mg/L rhamnose was measured. […] Additionally, expression of GFPuv over a wide range of rhamnose and theophylline concentrations was determined.
E. coli DH10B-T7His-Theo4 was grown overnight at 37° C. in LB medium containing kanamycin (50 mg/L). A 96 well 2 ml culture plate (Greiner) was filled with a concentrate of theophylline and L-rhamnose. […] Culture plates were incubated at 37° C. overnight under continuous shaking. The bacteria were centrifuged for 10 minutes at 4700 rpm in a Sorval Legend centrifuge. The supernatant was cleared and the cell pellet was resuspended in 500 μL 50 mM Tris-HCl pH 7.5. After resuspension, the plates were incubated at 37° C. for 1 hour to allow maturation of the GFPuv. 100 μL of suspension was pipetted into a 98 well black plate with clear bottom (Perkin Elmer) and measured with a Synergy MX plate reader. The cell density was measured by scattering at 600 nm and the fluorescence was measured at an excitation wavelength of 385 nm with a width of 20 nm and an emission wavelength of 508 nm with 20 nm width with a gain of 50. The background fluorescence and background scattering were subtracted and the fluorescence was divided by the scattering at 600 nm. The background fluorescence of bacteria without either GFPuv or T7His polymerase was negligible, but the fluorescence caused by other components than GFPuv in the bacteria was still subtracted.
The theophylline dependency of the cascade in response to differing concentrations of rhamnose was measured. E. coli DH10B-T7His-Theo4 diluted from an overnight culture were grown overnight in a 2 mL culture plate containing a variable amount of L-rhamnose and theophylline. The medium was cleared and the bacteria were resuspended in 50 mM Tris-HCl pH 7.5. The fluorescence was measured at an excitation wavelength of 385 nm and an emission wavelength of 508 nm. The cell density was measured by scattering at 600 nm.

[2] = system: thyA-deficient E. coli DH10B strain
Protocol: A comparison of a single intron construct with a construct of the present invention featuring a tandem self-splicing intron was made (FIG. 9). Growth (OD600) was plotted against time (minutes) in the presence (1 mM) and absence (0 mM) of theophylline for the construct designed by Thompson et al. (Thompson et al. 2002 BMC Biotechnol. 2: 21) utilising one theophylline-dependent intron in thyA, in a thyA-deficient E. coli DH10B strain (FIG. 9A). […] Growth was measured in the same way for a construct containing an E. coli thyA gene interrupted by two theophylline-dependent introns, which was transformed into a thyA-deficient E. coli DH10B strain. The overnight growth was plotted against the theophylline concentration in the medium (FIG. 9B).

[3] = system: thyA knockout strain of E. coli; details: single theophylline-dependent intron, background subtracted; cited from earlier work

Structure (SMILES)	background expression, % of the maximum expression ([1]; fully induced with rhamnose, theophylline absent, one intron cascade)	fold-change in GFPuv fluorescence caused by theophylline ([1]; at any L-rhamnose concentration)	signal of fully induced system relative to strong TacI promoter (pSC034f) ([1]; fully induced with rhamnose and theophylline)	concentration above which theophylline became slightly toxic ([2]; overnight growth, E. coli DH10B thyA-deficient)	Kd ([2]; read-out: apparent kd value, Michaelis-Menten-like profile of overnight growth vs theophylline concentration, two introns in thyA) [µM]	theophylline-induced growth, % of the parental intron [3]
C[C@H](O)[C@H](O)[C@@H](O)[C@@H](O)C=O [rhamnose, L-rhamnose]	about 7.5%					
Cn1c(=O)c2[nH]cnc2n(C)c1=O [theophylline]		around 15 times	5-6 times	Above 1 mM	100 to 200	approximately 40%
